Literature values as cited in patent US5043340A, “Derivatives of 4-desacetyl VLB C-3 carboxhydrazide” (Eli Lilly and Company, priority 1990, dated 1991).

Assays:
transplanted tumors = settings: mouse, in vivo; cited from earlier work
P 1534(J) leukemia = settings: mouse, in vivo; cited from earlier work
Gardner lymphosarcoma = settings: mouse, in vivo; cited from earlier work
[1] = test system: Ridgeway osteogenic sarcoma; settings: mouse, in vivo; cited from earlier work
[2] = test system: vincristine-resistant leukemias; settings: in humans; cited from earlier work
[3] = in humans, compared with vincristine; cited from earlier work

| SMILES | anti-tumor activity (transplanted tumors) | activity against P 1534(J) leukemia (P 1534(J) leukemia) | activity against Gardner lymphosarcoma (Gardner lymphosarcoma) | activity against Ridgeway osteogenic sarcoma [1] | effective against vincristine-resistant leukemias [2] | neurotoxicity [3] |
| --- | --- | --- | --- | --- | --- | --- |
| CCC1(O)CC2CN(CCc3c([nH]c4ccccc34)C(C(=O)OC)(c3cc4c(cc3OC)N(C)C3C(O)(C(=O)NN)C(O)C5(CC)C=CCN6CCC43C65)C2)C1 (stereo not drawn) [4-desacetyl VLB C-3 carboxhydrazide] | active anti-tumor agent against transplanted tumors in mice | active | active | active |  |  |
| CC[C@]1(O)C[C@@H]2CN(CCc3c([nH]c4ccccc34)[C@@](C(=O)OC)(c3cc4c(cc3OC)N(C)[C@H]3[C@@](O)(C(N)=O)[C@H](O)[C@]5(CC)C=CCN6CC[C@]43[C@@H]65)C2)C1 [vindesine, 4-desacetyl VLB C-3 carboxamide] |  |  |  |  | apparently effective against vincristine-resistant leukemias | less neurotoxicity than does vincristine |
